Measured values reported in US20140066410A1, “INHIBITORS OF BROMODOMAINS AS MODULATORS OF GENE EXPRESSION” (ICAHN SCHOOL OF MEDICINE AT MOUNT SINAI, priority 2011, published 2014).

How the values were obtained:
p53 target genes = assay: RT-PCR array of p53 signaling pathway genes in U20S cells; type: cell-based
Description: The selectivity of ischemin in transcription inhibition of p53 target genes was evaluated using a RT-PCR array analysis of RNA isolated from biological samples of U20S cells. The array was performed on RNA isolated from three different biological repeats in U20S cells using a set of primers selected for a group of genes that are known to be associated within p53 signaling pathways. The differentially expressed genes in treated related to untreated groups, i.e. doxorubicin treated versus untreated, or doxorubicin plus ischemin versus doxorubicin alone, were subjected to pathway analysis by using the Ingenuity System software. The fold changes of these genes were converted to log2Ratio and then imported into IPA tool along with gene symbols. The enriched pathways in the gene list were identified by Fisher exact test at p value of 0.05 and visualized in Canonical pathway explorer.

p53 = assay: p21 luciferase assay (p53 inhibition) in U20S cells upon doxorubicin; type: cell-based
Description: U20S Cells were transfected with p21 luciferase (1 μg) and renilla luciferase (100 ng) vectors in 6 well plate format using Fugene 6 (Roche). Briefly, total of 1.1 micrograms of vector was incubated with […] of Fugene 6 reagent for 30 min. After 3-4 hours of transfection, cell were treated with compounds for overnight, and then exposed to 300 nanogram of doxorubicin for next 24 hours. In these experiments, DMSO, transfected cells with empty vector and cell without doxorubicin were used as controls. DMSO concentration is maintained at 0.01%. Transfected cells with doxorubicin treatment were used as positive control. The luciferase activity was estimated by following the manufacturer's instruction (Promega) in a luminometer. […] The inhibitory activity (IC50) of a small molecule on p21 luciferase activity was obtained from the average of three biological replicates using PRISM software.

caspase 3/7 = assay: Caspase 3/7 assay in cardiomyocytes; type: cell-based, rat; settings: doxorubicin-induced
Description: Neonatal rat ventricular myocytes (NRVMs) were isolated by enzymatic dissociation of cardiac ventricle from 1-to-2-day-old Sprague-Dawley pups using the Worthington neonatal cardiomyocyte isolation system (Worthington). Briefly, the pups were anesthetized and their hearts were excised. The ventricular tissues were minced in ice cold HBSS and then digested with trypsin overnight at 4° C. followed by collagenase treatment for 45 min at 37° C. Cells were collected by centrifugation at 800 rpm for 5 min and subsequently underwent two rounds of preplating on culture dishes to minimize nonmyocyte contamination. The enriched cardiomyocytes were cultured in DMEM/F12 nutrient mixture (Invitrogen) with 10% horse serum and 5% fetal calf serum (Invitrogen). After 48 hours, the medium was changed to DMEM/F12 containing 1% insulin, transferrin, and selenium media supplement (ITS; Invitrogen) and 0.1% BSA.
Caspase 3/7 and TUNEL assays were performed to assess inhibition of apoptosis by ischemin. Caspase assay and TUNEL assays were performed using Caspase-Glo 3/7 and DeadEnd kits from Promega. Caspase assay was performed on live cardiomyocytes in 96 wells plate on three different days. Similarly, TUNEL assay was performed in triplicate on three different days. […] After treatment with compounds overnight and then doxorubicin for 24 hours, the intensities of luminecnce were read. […]

p53 binding to CBP = target: T1, p53 binding to CBP (Homo sapiens, UniProt Q92793); assay: HA-CBP and Flag-p53 pull-down assay in HEK 293T cells; type: cell-based; settings: doxorubicin treatment
T1 construct: expressed in transfected cells; host or cells: HEK 293T
Description: HA-CBP and Flag-p53 were transfected into human embryonic kidney (HEK) 293T cells with recommended amount of Fugene 6 (Roche). After transfection, the HA-CBP and Flag-p53 co-transfected cells were treated with ischemin in the presence or absence of doxorubicin. To test the inhibitory potential of ischemin against CBP and p53 association, CBP was first immuno-precipitated by pulling-down with HA-agarose beads (Sigma) and its association with p53 was then determined with western blot using anti-Flag antibody (Sigma).
It was also investigated whether ischemin down-regulates p53 by blocking p53 binding to CBP. Haemaglutinin-tagged CBP(HA-CBP) and Flag-tagged p53 (Flag-p53) was overexpressed in human embryonic kidney (HEK) 293T cells.

T1 sequence (Q92793 whole entry): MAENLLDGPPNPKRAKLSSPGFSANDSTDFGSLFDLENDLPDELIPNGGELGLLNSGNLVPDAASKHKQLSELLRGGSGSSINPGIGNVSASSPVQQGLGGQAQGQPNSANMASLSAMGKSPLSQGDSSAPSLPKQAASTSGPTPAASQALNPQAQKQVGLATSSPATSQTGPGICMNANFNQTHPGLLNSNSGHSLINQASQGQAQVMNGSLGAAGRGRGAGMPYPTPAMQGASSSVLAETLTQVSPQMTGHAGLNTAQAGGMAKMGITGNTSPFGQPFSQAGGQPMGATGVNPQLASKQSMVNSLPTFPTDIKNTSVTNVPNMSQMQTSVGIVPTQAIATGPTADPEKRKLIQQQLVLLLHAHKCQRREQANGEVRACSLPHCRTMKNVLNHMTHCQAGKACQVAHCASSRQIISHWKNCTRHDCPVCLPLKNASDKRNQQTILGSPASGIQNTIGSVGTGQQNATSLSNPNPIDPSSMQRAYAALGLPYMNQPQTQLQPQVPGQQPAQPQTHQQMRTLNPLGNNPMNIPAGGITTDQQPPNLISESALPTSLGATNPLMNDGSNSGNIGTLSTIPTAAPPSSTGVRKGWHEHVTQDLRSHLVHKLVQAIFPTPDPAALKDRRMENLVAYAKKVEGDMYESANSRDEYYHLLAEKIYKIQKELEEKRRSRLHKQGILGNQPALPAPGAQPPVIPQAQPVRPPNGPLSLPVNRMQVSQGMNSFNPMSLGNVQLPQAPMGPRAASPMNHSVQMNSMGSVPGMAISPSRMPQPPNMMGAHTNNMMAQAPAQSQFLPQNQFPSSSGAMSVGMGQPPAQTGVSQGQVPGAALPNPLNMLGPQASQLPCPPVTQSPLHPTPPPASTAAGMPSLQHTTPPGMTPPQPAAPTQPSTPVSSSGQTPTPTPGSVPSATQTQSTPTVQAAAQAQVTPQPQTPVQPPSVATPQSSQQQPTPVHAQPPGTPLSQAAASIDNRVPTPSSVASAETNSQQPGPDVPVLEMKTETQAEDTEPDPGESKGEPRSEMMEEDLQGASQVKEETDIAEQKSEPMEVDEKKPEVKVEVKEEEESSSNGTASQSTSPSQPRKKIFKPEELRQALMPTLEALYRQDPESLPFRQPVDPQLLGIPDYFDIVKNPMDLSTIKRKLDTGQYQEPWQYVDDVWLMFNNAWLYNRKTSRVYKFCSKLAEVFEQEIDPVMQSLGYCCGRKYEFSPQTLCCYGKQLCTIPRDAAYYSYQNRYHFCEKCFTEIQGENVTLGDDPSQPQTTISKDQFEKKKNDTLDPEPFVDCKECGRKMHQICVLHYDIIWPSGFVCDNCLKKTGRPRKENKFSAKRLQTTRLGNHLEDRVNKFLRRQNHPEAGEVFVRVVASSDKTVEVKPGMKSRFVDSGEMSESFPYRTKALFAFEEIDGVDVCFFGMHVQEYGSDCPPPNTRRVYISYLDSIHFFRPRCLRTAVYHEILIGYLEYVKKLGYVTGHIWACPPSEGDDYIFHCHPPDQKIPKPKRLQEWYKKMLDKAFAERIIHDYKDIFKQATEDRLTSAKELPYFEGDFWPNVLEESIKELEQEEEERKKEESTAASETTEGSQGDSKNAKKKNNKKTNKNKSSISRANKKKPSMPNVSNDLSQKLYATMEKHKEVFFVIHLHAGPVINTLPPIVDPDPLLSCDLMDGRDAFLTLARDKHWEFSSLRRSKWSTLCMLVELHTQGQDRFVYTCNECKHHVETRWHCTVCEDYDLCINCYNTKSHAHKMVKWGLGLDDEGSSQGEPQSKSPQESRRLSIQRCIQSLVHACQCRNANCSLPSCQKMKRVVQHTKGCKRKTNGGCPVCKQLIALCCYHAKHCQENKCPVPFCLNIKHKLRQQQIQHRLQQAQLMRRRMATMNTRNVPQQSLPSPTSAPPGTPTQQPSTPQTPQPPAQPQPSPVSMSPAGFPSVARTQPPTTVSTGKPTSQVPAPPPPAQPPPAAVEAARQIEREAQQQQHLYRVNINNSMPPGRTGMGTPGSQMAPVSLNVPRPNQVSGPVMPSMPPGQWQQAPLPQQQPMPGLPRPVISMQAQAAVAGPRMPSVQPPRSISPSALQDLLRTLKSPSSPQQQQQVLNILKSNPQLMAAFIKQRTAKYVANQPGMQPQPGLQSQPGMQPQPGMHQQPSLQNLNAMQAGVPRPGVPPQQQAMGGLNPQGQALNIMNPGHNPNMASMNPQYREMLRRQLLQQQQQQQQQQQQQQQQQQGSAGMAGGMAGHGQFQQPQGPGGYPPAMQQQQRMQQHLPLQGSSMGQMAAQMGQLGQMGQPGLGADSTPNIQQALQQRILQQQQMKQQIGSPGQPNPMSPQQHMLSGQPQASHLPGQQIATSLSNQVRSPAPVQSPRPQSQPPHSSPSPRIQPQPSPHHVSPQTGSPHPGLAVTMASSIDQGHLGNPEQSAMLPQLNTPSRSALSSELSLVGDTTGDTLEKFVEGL

## Cc1cc(/N=N/c2cc(S(=O)(=O)O)c(C)cc2C)c(N)cc1O [Ischemin/MS120, 5-(2-amino-4-hydroxy-5-methylphenylazo)-2,4-dimethylbenzenesulfonic acid]
p53 target genes
  Doxorubicin-induced expression of p53 target genes (CCNE2, CCNG2, CDC2, CDC25A, CDKN1A, CDKN2A, GADD45A, E2F1, E2F3, PCNA, SESN1, SESN2): differentially reduce
p53; U20S cells, FIG. 1A
  Inhibition of p21 luciferase activity: Dose-dependent inhibition
p53; compared with lead / ortho-methyl analogs
  Ability to inhibit p53-dependent p21 luciferase activity / p21 expression (SAR, words): nearly completely suppresses
p53; compounds at 50 μM, doxorubicin-treated U20S cells
  inhibition at 50 µM: 104%
Caspase 3/7
  Caspase 3/7 activity: inhibiting caspase 3/7 activity in a dose-dependent manner
p53 binding to CBP
  Inhibition of p53 binding to CBP: inhibiting in a dose-dependent manner
